In PMC11838007, “Contribution of telacebec to novel drug regimens in a murine tuberculosis model” (Antimicrobial Agents and Chemotherapy, 2024):
In brackets after ≈: the same amount, converted by molar mass.

Key:
[1] = system: Rv0678_2 mutant; assay type: cell-based, Mycobacterium tuberculosis
[2] = system: Rv0678_J4 mutant; assay type: cell-based, Mycobacterium tuberculosis

## CCc1nc2ccc(Cl)cn2c1C(=O)NCc1ccc(N2CCC(c3ccc(OC(F)(F)F)cc3)CC2)cc1 [Telacebec, telacebec]
[1]
  MIC: 8 ng/mL (≈ 0.0144 µM)
[2]
  MIC: 4 ng/mL (≈ 0.00718 µM)
